The experiment has as its system mites and insects. In words: Pesticidal activity in a variety of application forms. The format is in vivo. The note with it: diluted aqueous solutions, emulsions with surfactant, or without any solvent. As for the experimental part:
The pesticidal activity was found both in diluted aqueous solutions and in emulsions together with suitable ionic, amphoteric or non-ionic surfactant, or without any solvent.
The pesticidal activity of the silicon esters of the present invention was tested against mites and insects.

For the compound `CCCCO[Si](OCCCC)(OCCCC)OCCCC` [tetrabutyl ortho silicate], the pesticidal activity entry is on record as “high pesticidal activity”.

For the origin of these results see patent US20040127363A1, “Pesticidal compositions containing silicon compounds” (priority 2000, published 2004).
